Values of other authors in patent publication US20250367112A1, “DRUG DELIVERY COMPOSITION FOR PROMOTING TISSUE REGENERATION AND KIT FOR DRUG DELIVERY COMPRISING SAME” (T&R BIOFAB CO., LTD., priority 2023, published 2025).
Structures can show the parent of a compound that is named as a salt. Where two headings read alike, the source gives them in different places.

in vivo half-life (epidural injection): 4.2 ± 1 h | in vivo half-life (intravenous injection): 1.8 ± 0.7 h
SMILES: CCCN1CCCC[C@H]1C(=O)Nc1c(C)cccc1C [Ropivacaine HCl]
